{
  "source": "a melting point compilation (Tetko et al.; mined from patent text by program, amines drawn as free bases though some values may be those of a salt)",
  "note": "Residues, ends and D or L forms follow the SMILES beside them.",
  "data": [
    {"units": {"melting point": "°C"}, "values": [
      {"smiles": "CS(=O)(=O)c1ccc(-c2ccc(F)n2-c2ccc(F)cc2)cc1", "melting point": "140 to 141"},
      {"smiles": "Cc1ccc(C2CCN(C[C@H](O)COc3cccc4oc(S(=O)(=O)N(C)C)cc34)CC2)cc1C", "melting point": "146 to 148"},
      {"smiles": "CCCCCCCCCCCCc1ccccc1C(Sc1nc(C)c(C(=O)O)s1)C(=O)O", "note": "(stereo not drawn)", "melting point": "88 to 91"},
      {"smiles": "O=C1COCCN1c1ccc(N2C[C@@H](CN(Cc3ccccc3)Cc3ccccc3)OC2=O)cc1", "melting point": "140 to 145"},
      {"smiles": "CCOC(=O)C(C#N)=CNc1ncccc1CC", "melting point": "122 to 125"},
      {"smiles": "CCOC(=O)C(NC(=O)c1ncn(Cc2ccccc2)c1[N+](=O)[O-])(OC)C(=O)OCC", "melting point": "126 to 127"},
      {"smiles": "COc1cc2ncnc(N3CCN(C(=S)NCc4ccc(C(F)(F)F)cc4)CC3)c2cc1OC", "melting point": "216 to 217"},
      {"smiles": "COc1ccc(C2NCc3c2[nH]c2ccccc2c3=O)cc1OC", "note": "(stereo not drawn)", "melting point": "223 to 225"},
      {"smiles": "Cc1ccc2c([nH]c3c(C(=O)O)cccc32)c1Cl", "melting point": 266},
      {"smiles": "COC(=O)[C@H](Cc1ccc(OC(C)=O)c(OC(C)=O)c1)NC(=O)CNC(=O)OCc1ccccc1", "melting point": "130 to 131"},
      {"smiles": "CCCCCCCNC(=O)Nc1ccccc1C=Cc1cc(C(C)(C)C)c(O)c(C(C)(C)C)c1", "melting point": "162 to 164"},
      {"smiles": "COC(=O)C(Cc1ccccc1)NC(=O)C(CC(=O)O)NC(=O)C1CCCN1", "note": "(stereo not drawn) (H-Pro-Asp-Phe-OMe; configuration not given here)", "melting point": "238 to 242"},
      {"smiles": "COc1cc(C=O)cc(OC)c1F", "melting point": "97 to 98"},
      {"smiles": "Cc1cn(C(C)(C)C(=O)Nc2ccccc2)nc1-c1ccccc1", "melting point": "116 to 119"},
      {"smiles": "CS(=O)(=O)c1ccc(/C(=C2\\CCSC2=O)c2ccc(Cl)cc2)cc1", "melting point": 183},
      {"smiles": "CC(=O)NC1Cc2ccc(NC(=O)c3ccccc3Br)cc2C1", "note": "(stereo not drawn)", "melting point": "216 to 217"},
      {"smiles": "CC(=O)NCC1CN(c2ccc(N3CCN(c4nnc(N)s4)C(F)C3)cc2)C(=O)O1", "note": "(stereo not drawn)", "melting point": "228 to 230"},
      {"smiles": "N#Cc1ccc(C2=NNC(=O)C3CC23)cc1", "note": "(stereo not drawn)", "melting point": "265 to 266"},
      {"smiles": "CCCCC(=O)Nc1c(C(=O)OC)cc(Cl)cc1[N+](=O)[O-]", "melting point": "84 to 85"},
      {"smiles": "CNc1c2c(nn1C)N(c1c(C)cc(C)cc1C)CCC2", "melting point": "143 to 145"},
      {"smiles": "CCN(CC)CCn1nnnc1-c1ccc2oc3ncccc3c(=O)c2c1", "melting point": "126 to 128"},
      {"smiles": "COc1cc(N2CCC(N3CCN(C)CC3)CC2)ccc1-c1nc2c(N[C@H]3[C@@H](C(N)=O)[C@@H]4C=C[C@H]3C4)c(Br)cnc2[nH]1", "melting point": "185 to 195"},
      {"smiles": "N#CCCCCCCNCc1ccc(O)cc1", "melting point": "42 to 44.5"},
      {"smiles": "COc1ccccc1C(=O)c1cccc(C#N)c1", "melting point": 180},
      {"smiles": "CC1(C)Cc2c(sc(N)c2C(N)=O)CO1", "melting point": "212 to 214"},
      {"smiles": "Cc1c(C=NO)c2cc(F)ccc2n1-c1ccc(OCc2ccccc2)cc1", "melting point": "183 to 185"},
      {"smiles": "NC(N)=NC(=O)c1ccccc1Sc1ccccc1C(=O)N=C(N)N", "melting point": "> 220"},
      {"smiles": "CCCCCCc1csc2c(CCCCCC)csc12", "melting point": "57.5 to 59.1"},
      {"smiles": "Cc1cc(SC2=C(O)CC(CCc3ccccn3)(C(C)C)OC2=O)c(C(C)(C)C)cc1CO", "note": "(stereo not drawn)", "melting point": "100 to 110"},
      {"smiles": "CON(C)C(=O)c1cc(Br)cnc1N1CCCC1", "melting point": "94 to 96"},
      {"smiles": "CC(=O)N1c2ccccc2N(Cc2ccccc2)C(=O)[C@H]2CCC[C@H]21", "note": "(relative stereo)", "melting point": "209 to 210"},
      {"smiles": "Cn1c(=O)c(-c2ccc(Cl)cc2Cl)cc2c3cc(-c4nc(CN)cs4)ccc3n(C)c21", "melting point": "261 to 266"},
      {"smiles": "CC1(C)Cc2c(c(N3CCCC3)nc3sc4c(NCc5ccc(S(C)(=O)=O)cc5)ncnc4c23)CO1", "melting point": "324 to 326"},
      {"smiles": "Cc1cnc(NC(=O)c2cc(Oc3cnc(C(=O)N(C)C)cn3)cc(O[C@@H](C)COC(F)F)c2)cn1", "melting point": 75},
      {"smiles": "CC(C)(C)NS(=O)(=O)c1cccc2c1CSC2", "melting point": "128 to 132"},
      {"smiles": "CC(=O)OC1CSC(Oc2ccnc(-c3ccc(F)nc3)c2)C(OC(C)=O)C1OC(C)=O", "note": "(stereo not drawn)", "melting point": 151},
      {"smiles": "OC1CCCc2nc3ccccc3c(NCc3ccccc3)c21", "note": "(stereo not drawn)", "melting point": 159},
      {"smiles": "Cc1ccc(C2CCCCC2)n1CC[C@H]1C[C@H](O)CC(=O)O1", "note": "(relative stereo)", "melting point": "129 to 130"},
      {"smiles": "C=CC12CCC3(C)C(F)C(O)CC3C1CCc1cc(O)ccc12", "note": "(stereo not drawn)", "melting point": "94 to 98"},
      {"smiles": "CNS(=O)(=O)c1ccccc1S(=O)(=O)NC(=O)Nc1nc(C)cc(C)n1", "melting point": "180 to 185"},
      {"smiles": "CC(=O)c1ccccc1-c1ccc(C(=O)O)cc1", "melting point": "199 to 201"},
      {"smiles": "CN(C(=O)C(F)(F)F)C1(C)CN(c2c(F)cc3c(=O)c(C(=O)O)cn(C4CC4)c3c2F)C1", "melting point": "291 to 294"},
      {"smiles": "COc1ccc2c(c1)CCC1C2C(OC(C)=O)CC2(C)C(OC(C)=O)CCC12", "note": "(stereo not drawn)", "melting point": "214 to 215"},
      {"smiles": "O=C1c2cc(OCc3ccc4ccccc4n3)ccc2CC1Cc1ccccc1", "note": "(stereo not drawn)", "melting point": "104 to 106"},
      {"smiles": "Cc1c(CC(C)(C)C(=O)O)n(Cc2ccc(Cl)cc2)c2ccc(OCc3ccc(-c4ccccc4)cn3)cc12", "melting point": "177 to 179"},
      {"smiles": "COC(=O)NN(C(=O)Cl)c1cccc2c1OCC2", "melting point": "110 to 112"},
      {"smiles": "CCOC(=O)c1cnc2n(c1=O)CC(C)CC2=NNc1ccccc1", "note": "(stereo not drawn)", "melting point": "165 to 167"},
      {"smiles": "O=c1oc(-c2cccc(OC(F)F)c2)nc2ccccc12", "melting point": "84 to 87"},
      {"smiles": "COc1ccnc(CCc2nc3cc(-c4ccc(S(=O)(=O)N(C)C)cc4C)cnc3[nH]2)c1", "melting point": "179 to 180"},
      {"smiles": "Cc1ccnc(C(=O)c2[nH]c3cc(Cl)ccc3c2NC(=O)CN(C)C)c1", "melting point": "193 to 194"},
      {"smiles": "O=c1[nH]c2ccc(CCCNCC[C@H]3CC[C@H](c4ccc(F)cc4)CC3)cc2o1", "melting point": "99 to 109"},
      {"smiles": "CSc1ccc(-c2nn(Cc3ccc(Cl)cc3Cl)c(=O)cc2-c2ccc(Cl)cc2)cc1", "melting point": "154 to 155"},
      {"smiles": "N#CCc1cccc2c(-c3ccc(F)cc3)nccc12", "melting point": 136},
      {"smiles": "COc1ccc(C(=O)c2cc(F)ccc2F)c(O)c1", "melting point": 109},
      {"smiles": "Cc1cc(-c2cccc(C(F)(F)F)c2)nn2c(C)nnc12", "melting point": "196 to 198"},
      {"smiles": "COCCOc1cc(-n2c(=O)cc(C(F)(F)F)n(C)c2=O)c(F)cc1Cl", "melting point": "84 to 87"},
      {"smiles": "CCN1c2ccccc2N(C)C(=O)c2cccnc21", "melting point": "106 to 111"},
      {"smiles": "O=C(Cn1c(-c2ccc(Br)cc2)nc2cccnc21)N1CCCCC1", "melting point": "175 to 176"},
      {"smiles": "O=C(NCC(=O)c1cccs1)c1ccccc1", "melting point": "146 to 147"},
      {"smiles": "CC(=O)Oc1ccc([C@H]2[C@H](c3ccccc3)C2(Cl)Cl)cc1", "note": "(relative stereo)", "melting point": "124 to 126"},
      {"smiles": "CCOC(=O)C1CCCCN1C(=O)[C@H](CCCNC(=N)N)NS(=O)(=O)c1ccc2cc(OC)ccc2c1", "note": "(stereo partly drawn)", "melting point": "192 to 193"},
      {"smiles": "Cn1ccnc1Sc1ccc(Nc2c(C#N)cnc3cc(/C=C/CCN4CCC(N5CCCC5)CC4)ccc23)cc1Cl", "melting point": "214 to 216"},
      {"smiles": "OCc1cn(Cc2ccc(OCc3coc(-c4ccccc4)n3)cc2)nc1-c1cccs1", "melting point": "155 to 156"},
      {"smiles": "COC(=O)c1ccc(NC(=O)CNc2ccccc2F)cc1", "melting point": "169 to 171"},
      {"smiles": "CCCCCCCCNC(=O)N1CCC(S(=O)(=O)c2ccc(CCNC[C@H](O)COc3ccc4c(c3)OCO4)cc2)CC1", "melting point": "84 to 86"},
      {"smiles": "NC(=O)c1cn(Cc2cccc(F)c2F)cn1", "melting point": "221 to 222"},
      {"smiles": "C=CCOCC(CC)(COCC=C)C(NC(=O)c1ccc(Cl)cc1)NC(=N[N+](=O)[O-])Nc1cccnc1", "note": "(stereo not drawn)", "melting point": "175 to 180"},
      {"smiles": "OC(COc1cccc2ccccc12)CN1CCCC1", "note": "(stereo not drawn)", "melting point": "68 to 70"}
    ]}
  ]
}
